Several values for one entry are separate records, joined by “and”; a condition that tells them apart may be missing. Identical values can stand only once.
Experiments:
[1] = xn = mol fraction of the nth substance listed; conditions: 298 K; 100 kPa; Crystal of intercomponent compound 1; X-ray diffraction; x2 = 0.542
[2] = specific heat capacity at constant pressure; xn = mol fraction of the nth substance listed; conditions: 100 kPa, Crystal of intercomponent compound 1, x2 = 0.542

[Te] [tellurium] + [In]
Conditions	mass density [kg/m3]
[1]	6307

[2]
Conditions	specific heat capacity
10.11 K, relaxation calorimetry	13.3 J/K/kg and 13.26 J/K/kg
10.12 K, relaxation calorimetry	13.3 J/K/kg
12.12 K, relaxation calorimetry	20.6 J/K/kg and 20.59 J/K/kg
12.13 K, relaxation calorimetry	20.65 J/K/kg
14.14 K, relaxation calorimetry	28.68 J/K/kg and 28.67 J/K/kg and 28.69 J/K/kg
16.15 K, relaxation calorimetry	36.99 J/K/kg
16.16 K, relaxation calorimetry	36.96 J/K/kg and 37.07 J/K/kg
18.17 K, relaxation calorimetry	45.25 J/K/kg
18.18 K, relaxation calorimetry	45.21 J/K/kg
20.18 K, relaxation calorimetry	53.21 J/K/kg
20.19 K, relaxation calorimetry	53.01 J/K/kg and 53.25 J/K/kg
22.2 K, relaxation calorimetry	60.8 J/K/kg and 61.01 J/K/kg and 60.84 J/K/kg
24.22 K, relaxation calorimetry	68.02 J/K/kg and 68.1 J/K/kg
26.23 K, relaxation calorimetry	74.95 J/K/kg
26.24 K, relaxation calorimetry	74.91 J/K/kg and 74.95 J/K/kg
28.25 K, relaxation calorimetry	81.26 J/K/kg and 81.31 J/K/kg
30.27 K, relaxation calorimetry	87.16 J/K/kg
35.3 K, relaxation calorimetry	101.02 J/K/kg
35.31 K, relaxation calorimetry	100.94 J/K/kg and 100.9 J/K/kg
40.34 K, relaxation calorimetry	112.78 J/K/kg and 112.99 J/K/kg
40.35 K, relaxation calorimetry	112.74 J/K/kg
45.38 K, relaxation calorimetry	122.93 J/K/kg and 123.09 J/K/kg
45.39 K, relaxation calorimetry	122.76 J/K/kg
50.41 K, relaxation calorimetry	132.54 J/K/kg
50.42 K, relaxation calorimetry	132.13 J/K/kg
50.43 K, relaxation calorimetry	132.04 J/K/kg
55.43 K, relaxation calorimetry	140.42 J/K/kg
55.45 K, relaxation calorimetry	139.92 J/K/kg
55.47 K, relaxation calorimetry	139.72 J/K/kg
60.47 K, relaxation calorimetry	146.93 J/K/kg
60.49 K, relaxation calorimetry	146.4 J/K/kg
60.51 K, relaxation calorimetry	146.44 J/K/kg
65.49 K, relaxation calorimetry	153.78 J/K/kg
65.53 K, relaxation calorimetry	152.79 J/K/kg
65.56 K, relaxation calorimetry	152.5 J/K/kg
70.51 K, relaxation calorimetry	159.39 J/K/kg
70.57 K, relaxation calorimetry	158.16 J/K/kg
70.61 K, relaxation calorimetry	157.78 J/K/kg
75.55 K, relaxation calorimetry	164.01 J/K/kg
75.61 K, relaxation calorimetry	162.86 J/K/kg
75.65 K, relaxation calorimetry	162.69 J/K/kg
80.58 K, relaxation calorimetry	169.46 J/K/kg
80.64 K, relaxation calorimetry	167.77 J/K/kg
80.7 K, relaxation calorimetry	167.02 J/K/kg
85.6 K, relaxation calorimetry	173.13 J/K/kg
85.68 K, relaxation calorimetry	172.14 J/K/kg
85.74 K, relaxation calorimetry	170.65 J/K/kg
90.65 K, relaxation calorimetry	176.64 J/K/kg
90.72 K, relaxation calorimetry	175.44 J/K/kg
90.77 K, relaxation calorimetry	175.19 J/K/kg
95.67 K, relaxation calorimetry	179.52 J/K/kg
95.75 K, relaxation calorimetry	178.16 J/K/kg
95.8 K, relaxation calorimetry	177.96 J/K/kg
100.78 K, relaxation calorimetry	180.43 J/K/kg
100.82 K, relaxation calorimetry	179.89 J/K/kg
100.89 K, relaxation calorimetry	181.75 J/K/kg
106.78 K, relaxation calorimetry	184.18 J/K/kg
106.86 K, relaxation calorimetry	182.66 J/K/kg
106.88 K, relaxation calorimetry	182.86 J/K/kg
113.77 K, relaxation calorimetry	186.45 J/K/kg
113.82 K, relaxation calorimetry	185.55 J/K/kg
113.85 K, relaxation calorimetry	185.13 J/K/kg
120.77 K, relaxation calorimetry	188.39 J/K/kg
120.8 K, relaxation calorimetry	188.64 J/K/kg
120.84 K, relaxation calorimetry	187.28 J/K/kg
127.76 K, relaxation calorimetry	189.79 J/K/kg
127.78 K, relaxation calorimetry	190.45 J/K/kg
127.81 K, relaxation calorimetry	189.51 J/K/kg
134.73 K, relaxation calorimetry	191.98 J/K/kg
134.75 K, relaxation calorimetry	191.11 J/K/kg
134.77 K, relaxation calorimetry	191.32 J/K/kg
141.7 K, relaxation calorimetry	193.51 J/K/kg
141.73 K, relaxation calorimetry	192.35 J/K/kg
141.74 K, relaxation calorimetry	193.09 J/K/kg
148.67 K, relaxation calorimetry	194.87 J/K/kg
148.71 K, relaxation calorimetry	194.62 J/K/kg and 193.75 J/K/kg
155.61 K, relaxation calorimetry	195.65 J/K/kg
155.64 K, relaxation calorimetry	195.94 J/K/kg and 195.82 J/K/kg
162.58 K, relaxation calorimetry	197.26 J/K/kg
162.62 K, relaxation calorimetry	197.38 J/K/kg
169.55 K, relaxation calorimetry	198.54 J/K/kg
169.58 K, relaxation calorimetry	198.37 J/K/kg
169.59 K, relaxation calorimetry	198.42 J/K/kg
176.53 K, relaxation calorimetry	198.87 J/K/kg
176.56 K, relaxation calorimetry	198.83 J/K/kg
176.57 K, relaxation calorimetry	198.87 J/K/kg
183.5 K, relaxation calorimetry	199.69 J/K/kg
183.54 K, relaxation calorimetry	199.69 J/K/kg
190.47 K, relaxation calorimetry	200.4 J/K/kg
190.51 K, relaxation calorimetry	200.44 J/K/kg and 200.48 J/K/kg
197.43 K, relaxation calorimetry	200.56 J/K/kg
197.47 K, relaxation calorimetry	200.68 J/K/kg and 200.77 J/K/kg
204.39 K, relaxation calorimetry	201.18 J/K/kg
204.43 K, relaxation calorimetry	201.3 J/K/kg
204.44 K, relaxation calorimetry	201.34 J/K/kg
211.34 K, relaxation calorimetry	201.67 J/K/kg
211.38 K, relaxation calorimetry	201.76 J/K/kg
211.39 K, relaxation calorimetry	201.59 J/K/kg
218.29 K, relaxation calorimetry	201.76 J/K/kg
218.34 K, relaxation calorimetry	201.92 J/K/kg
225.27 K, relaxation calorimetry	202.09 J/K/kg
225.31 K, relaxation calorimetry	202.29 J/K/kg and 202.17 J/K/kg
226.53 K, relaxation calorimetry	200.85 J/K/kg
226.54 K, relaxation calorimetry	201.01 J/K/kg
231.55 K, relaxation calorimetry	201.3 J/K/kg
231.56 K, relaxation calorimetry	201.22 J/K/kg
232.22 K, relaxation calorimetry	202.38 J/K/kg
232.27 K, relaxation calorimetry	202.33 J/K/kg
232.28 K, relaxation calorimetry	202.29 J/K/kg
236.56 K, relaxation calorimetry	201.39 J/K/kg
236.57 K, relaxation calorimetry	201.47 J/K/kg
239.17 K, relaxation calorimetry	202 J/K/kg
239.24 K, relaxation calorimetry	202.09 J/K/kg and 202.05 J/K/kg
241.58 K, relaxation calorimetry	201.67 J/K/kg
241.6 K, relaxation calorimetry	201.26 J/K/kg
246.14 K, relaxation calorimetry	201.88 J/K/kg
246.19 K, relaxation calorimetry	202.09 J/K/kg and 202.05 J/K/kg
246.51 K, relaxation calorimetry	201.51 J/K/kg
246.52 K, relaxation calorimetry	201.92 J/K/kg
251.63 K, relaxation calorimetry	202.09 J/K/kg
251.64 K, relaxation calorimetry	202 J/K/kg
253.09 K, relaxation calorimetry	202.17 J/K/kg
253.15 K, relaxation calorimetry	202.13 J/K/kg and 202.17 J/K/kg
256.55 K, relaxation calorimetry	202.29 J/K/kg
256.56 K, relaxation calorimetry	202.17 J/K/kg
260.04 K, relaxation calorimetry	202.25 J/K/kg
260.1 K, relaxation calorimetry	202.25 J/K/kg and 202.29 J/K/kg
261.55 K, relaxation calorimetry	202.25 J/K/kg
261.57 K, relaxation calorimetry	202.13 J/K/kg
266.18 K, Extra sensitive DSC	203.98 J/K/kg
270 K, Extra sensitive DSC	203.98 J/K/kg
275 K, Extra sensitive DSC	204.48 J/K/kg
280 K, Extra sensitive DSC	204.89 J/K/kg
285 K, Extra sensitive DSC	205.18 J/K/kg
290 K, Extra sensitive DSC	205.59 J/K/kg
295 K, Extra sensitive DSC	206.09 J/K/kg
300 K, Extra sensitive DSC	206.5 J/K/kg
305 K, Extra sensitive DSC	207.08 J/K/kg
310 K, Extra sensitive DSC	207.28 J/K/kg
315 K, Extra sensitive DSC	207.28 J/K/kg
320 K, Extra sensitive DSC	207.28 J/K/kg
325 K, Extra sensitive DSC	207.49 J/K/kg
328.56 K, Extra sensitive DSC	207.7 J/K/kg
332.56 K, Extra sensitive DSC	209.1 J/K/kg
335.17 K, Extra sensitive DSC	209.43 J/K/kg
336.9 K, Extra sensitive DSC	209.39 J/K/kg
339.51 K, Extra sensitive DSC	209.35 J/K/kg
342.11 K, Extra sensitive DSC	209.39 J/K/kg
344.71 K, Extra sensitive DSC	209.18 J/K/kg
347.32 K, Extra sensitive DSC	209.02 J/K/kg
349.92 K, Extra sensitive DSC	208.77 J/K/kg
352.53 K, Extra sensitive DSC	208.4 J/K/kg
355.13 K, Extra sensitive DSC	208.48 J/K/kg
357.73 K, Extra sensitive DSC	208.27 J/K/kg
358.6 K, Extra sensitive DSC	208.15 J/K/kg

Source: the NIST ThermoML archive (doi:10.1016/j.jct.2018.08.013)
